Read-outs that look alike come from different tables or passages of the source.
Tests used:
Format in all cases: cell-based
[1] = system: multi-drug resistant (MDR) murine leukemia cell line P388ADR; experiment: Inhibition of cell proliferation (GI50) in P388ADR cells; details: Mus musculus, P388/ADR, read-out: GI50 in Multi-Cancer Cells P388ADR
Procedure: [The procedure below names another organism; the source lists this organism under the same test.] (§1) T-47D, MX-1, SNU398 and HCT116 cells were grown and harvested as in Example 33. An aliquot of 90 μL of cells (4.4×10^4 cells/mL) was added to a well of a 96-well microtiter plate containing 5 μL of a 10% DMSO in RPMI-1640 media solution containing 10 nM to 100 μM of 5,7-dihydro-N-(3,5-dimethoxyphenyl)-2-(methylthio)furo[3,4-d]pyrimidin-4-amine (1 nM to 10 μM final) or related compounds. An aliquot of […] of cells was added to a well of a 96-well microtiter plate containing 5 μL of a 10% DMSO in RPMI-1640 media solution without compound as the control sample for maximal cell proliferation (LMax). The samples were mixed by agitation and then incubated at 37° C. for 48 h in a 5% CO2-95% humidity incubator. After incubation, the samples were removed from the incubator and 25 μL of CellTiter-Glo™ reagent (Promega) was added. The samples were mixed by agitation and incubated at room temperature for 10-15 min. Plates were then read using a luminescent plate reader (Model SPECTRAfluor Plus, Tecan) to give Ltest values.
(§2) Baseline for GI50 (dose for 50% inhibition of cell proliferation) of initial cell numbers was determined by adding an aliquot of 45 μL of cells or 45 μL of media, respectively, to wells of a 96-well microtiter plate containing 5 μL of a 10% DMSO in RPMI-1640 media solution. […]

[2] = system: MX-1 cells; experiment: Inhibition of cell proliferation (GI50, CellTiter-Glo) in MX-1 cells; details: Homo sapiens, MX1, 48 h, read-out: GI50 in Cancer Cells MX1
Procedure: as §1
(§3) Baseline for GI50 (dose for 50% inhibition of cell proliferation) of initial cell numbers was determined by adding an aliquot of 45 μL of cells or 45 μL of media, respectively, to wells of a 96-well microtiter plate containing 5 μL of a 10% DMSO in RPMI-1640 media solution. The samples were mixed by agitation and then incubated at 37° C. for 0.5 h in a 5% CO2-95% humidity incubator. After incubation, the samples were removed from the incubator and 25 μL of CellTiter-Glo™ reagent (Promega) was added. The samples were mixed by agitation and incubated at 37° C. for 10-15 min at room temperature in a 5% CO2-95% humidity incubator. Fluorescence was read as above, (LStart) defining luminescence for initial cell number used as baseline in GI50 determinations.
(§4) GI50 (dose for 50% inhibition of cell proliferation) is the concentration where [(LTest−LStart)/(LMax−LStart)]=0.5.

[3] = system: multi-drug resistant (MDR) human sarcoma cell line MES-SA/ADR; experiment: Inhibition of cell proliferation (GI50) in MES-SA/ADR cells; details: read-out: GI50 in Multi-Cancer Cells MES-SA/ADR
Procedure: [The procedure below names another cell line; the source lists this cell line under the same test.] as §1, §2

[4] = system: murine leukemia cell line P388; experiment: Inhibition of cell proliferation (GI50) in P388 cells; details: Mus musculus, read-out: GI50 in Multi-Cancer Cells P388
Procedure: [The procedure below names another organism; the source lists this organism under the same test.] as §1, §2

[5] = system: human lung cancer cell line H1299; experiment: Caspase cascade activation (24 h assay) in H1299 cells; details: NCI-H1299, 24 h assay (Table II), read-out: Caspase Activation Potency EC50 (24 h) H1299
Procedure: Human breast cancer cell line T-47D, human hepatocellular carcinoma cell line SNU398 and human colon carcinoma cell line HCT116 were grown according to media component mixtures designated by American Type Culture Collection+10% FCS (Invitrogen Corporation), in a 5% CO2-95% humidity incubator at 37° C. T-47D and H1299 cells were maintained at a cell density between 50 and 80% confluency at a cell density of 0.1 to 0.6×10^6 cells/mL. Cells were harvested at 600×g and resuspended at 0.65×10^6 cells/mL into appropriate media+10% FCS. An aliquot of 22.5 μL of cells was added to a well of a 384-well microtiter plate containing 2.5 μL of a 10% DMSO in RPMI-1640 media solution containing 0.16 to 100 μM of 5,7-dihydro-N-(3,5-dimethoxyphenyl)-2-(methylthio)furo[3,4-d]pyrimidin-4-amine or other test compound (0.016 to 10 μM final). An aliquot of 22.5 μL of cells was added to a well of a 384-well microtiter plate containing 2.5 μL of a 10% DMSO in RPMI-1640 media solution without test compound as the control sample. The samples were mixed by agitation and then incubated at 37° C. for 24 or 48 h in a 5% CO2-95% humidity incubator. […] Using a fluorescent plate reader (Model SPECTRAfluor Plus, Tecan), an initial reading (T=0) was made approximately 1-2 min after addition of the substrate solution, employing excitation at 485 nm and emission at 530 nm, to determine the background fluorescence of the control sample. After the 3 h incubation, the samples were read for fluorescence as above (T=3 h).
(§5) The Relative Fluorescence Unit values (RFU) were used to calculate the sample readings as follows: RFU(T=3h)−Control RFU(T=0)=Net RFU(T=3h)
(§6) The activity of caspase cascade activation was determined by the ratio of the net RFU value for 5,7-dihydro-N-(3,5-dimethoxyphenyl)-2-(methylthio)furo[3,4-d]pyrimidin-4-amino or other test compound to that of control samples. The EC50 (nM) was determined by a sigmoidal dose-response calculation (Prism 3.0, GraphPad Software Inc.). […]

[6] = system: Human breast cancer cell line T-47D; experiment: Caspase cascade activation (Ac-DEVD-R110 fluorogenic substrate) in T-47D cells; details: T47D
Procedure: (§7) Human breast cancer cell line T-47D, human hepatocellular carcinoma cell line SNU398 and human colon carcinoma cell line HCT116 were grown according to media component mixtures designated by American Type Culture Collection+10% FCS (Invitrogen Corporation), in a 5% CO2-95% humidity incubator at 37° C. T-47D and H1299 cells were maintained at a cell density between 50 and 80% confluency at a cell density of 0.1 to 0.6×10^6 cells/mL. Cells were harvested at 600×g and resuspended at 0.65×10^6 cells/mL into appropriate media+10% FCS. An aliquot of 22.5 μL of cells was added to a well of a 384-well microtiter plate containing 2.5 μL of a 10% DMSO in RPMI-1640 media solution containing 0.16 to 100 μM of 5,7-dihydro-N-(3,5-dimethoxyphenyl)-2-(methylthio)furo[3,4-d]pyrimidin-4-amine or other test compound (0.016 to 10 μM final). An aliquot of 22.5 μL of cells was added to a well of a 384-well microtiter plate containing 2.5 μL of a 10% DMSO in RPMI-1640 media solution without test compound as the control sample. The samples were mixed by agitation and then incubated at 37° C. for 24 or 48 h in a 5% CO2-95% humidity incubator. After incubation, the samples were removed from the incubator and 25 μL of a solution containing 14 μM of N-(Ac-DEVD)-N′-ethoxycarbonyl-R110 (SEQ ID No.:1) fluorogenic substrate (Cytovia, Inc.; WO99/18856), 20% sucrose (Sigma), 20 mM DTT (Sigma), 200 mM NaCl (Sigma), 40 mM Na PIPES buffer pH 7.2 (Sigma), and 500 µg/mL lysolecithin (Calbiochem) was added. The samples were mixed by agitation and incubated at room temperature. Using a fluorescent plate reader (Model SPECTRAfluor Plus, Tecan), an initial reading (T=0) was made approximately 1-2 min after addition of the substrate solution, employing excitation at 485 nm and emission at 530 nm, to determine the background fluorescence of the control sample. After the 3 h incubation, the samples were read for fluorescence as above (T=3 h).
as §5
(§8) The activity of caspase cascade activation was determined by the ratio of the net RFU value for 5,7-dihydro-N-(3,5-dimethoxyphenyl)-2-(methylthio)furo[3,4-d]pyrimidin-4-amino or other test compound to that of control samples. The EC50 (nM) was determined by a sigmoidal dose-response calculation (Prism 3.0, GraphPad Software Inc.).

[7] = system: T-47D cells; experiment: Inhibition of cell proliferation (GI50, CellTiter-Glo) in T-47D cells; details: Homo sapiens, T47D, 48 h, read-out: GI50 in Cancer Cells T47D
Procedure: as §1, §3, §4

[8] = system: human sarcoma cell line MES-SA; experiment: Inhibition of cell proliferation (GI50) in MES-SA cells; details: read-out: GI50 in Multi-Cancer Cells MES-SA
Procedure: [The procedure below names another cell line; the source lists this cell line under the same test.] as §1, §2

[9] = system: human breast cancer cell lines MDAMB435; experiment: Inhibition of cell proliferation (GI50) in MDAMB435 cells; details: MDA-MB-435, read-out: GI50 in Multi-Cancer Cells MDAMB435
Procedure: [The procedure below names another cell line; the source lists this cell line under the same test.] as §1, §2

[10] = system: human hepatocellular carcinoma cell line SNU398; experiment: Caspase cascade activation (Ac-DEVD-R110 fluorogenic substrate) in SNU398 cells
Procedure: as §7, §5, §8

[11] = system: human colon carcinoma cell line HCT116; experiment: Caspase cascade activation (Ac-DEVD-R110 fluorogenic substrate) in HCT116 cells; details: HCT-116, incubated 24 or 48 h (Table I), 0.016 to 10 μM final, read-out: Caspase Activation Potency EC50 HCT116
Procedure: as §7, §5, §8

[12] = system: HCT116 cells; experiment: Inhibition of cell proliferation (GI50, CellTiter-Glo) in HCT116 cells; details: Homo sapiens, HCT-116, 48 h, read-out: GI50 in Cancer Cells HCT116
Procedure: as §1, §3, §4

[13] = system: SNU398 cells; experiment: Inhibition of cell proliferation (GI50, CellTiter-Glo) in SNU398 cells; details: Homo sapiens, SNU-398, 48 h, read-out: GI50 in Cancer Cells SNU398
Procedure: as §1, §3, §4

[14] = system: breast cancer cell line SKBR3; experiment: Caspase cascade activation (24 h assay) in SKBR3 cells; details: Homo sapiens, SK-BR-3, 24 h assay (Table II), read-out: Caspase Activation Potency EC50 (24 h) SKBR3
Procedure: [The procedure below names another cell line; the source lists this cell line under the same test.] Human breast cancer cell line T-47D, human hepatocellular carcinoma cell line SNU398 and human colon carcinoma cell line HCT116 were grown according to media component mixtures designated by American Type Culture Collection+10% FCS (Invitrogen Corporation), in a 5% CO2-95% humidity incubator at 37° C. T-47D and H1299 cells were maintained at a cell density between 50 and 80% confluency at a cell density of 0.1 to 0.6×10^6 cells/mL. Cells were harvested at 600×g and resuspended at 0.65×10^6 cells/mL into appropriate media+10% FCS. […] Using a fluorescent plate reader (Model SPECTRAfluor Plus, Tecan), an initial reading (T=0) was made approximately 1-2 min after addition of the substrate solution, employing excitation at 485 nm and emission at 530 nm, to determine the background fluorescence of the control sample. After the 3 h incubation, the samples were read for fluorescence as above (T=3 h).
as §5, §6

[15] = 24 h assay (Table II), read-out: Caspase Activation Potency EC50 (24 h) T47D
[16] = T-47D, incubated 24 or 48 h (Table I), 0.016 to 10 μM final, read-out: Caspase Activation Potency EC50 T-47D
[17] = SNU-398, 24 h assay (Table II), read-out: Caspase Activation Potency EC50 (24 h) SNU398
[18] = SNU-398, incubated 24 or 48 h (Table I), 0.016 to 10 μM final, read-out: Caspase Activation Potency EC50 SNU398

| Compound | GI50 [1] [nM] | GI50 [2] [nM] | GI50 [3] [nM] | GI50 [4] [nM] | EC50 [5] [nM] | EC50 [6, 15] [nM] | EC50 [6, 16] [nM] | GI50 [7] [nM] | GI50 [8] [nM] | GI50 [9] [nM] | EC50 [10, 17] [nM] | EC50 [11] [nM] | GI50 [12] [nM] | EC50 [10, 18] [nM] | GI50 [13] [nM] | EC50 [14] [nM] |
| --- | --- | --- | --- | --- | --- | --- | --- | --- | --- | --- | --- | --- | --- | --- | --- | --- |
| COc1ccc(N(C)c2nc(SC)nc3c2CCC3)cc1 [Example 23, 6,7-Dihydro-N-(4-methoxyphenyl)-N-methyl-2-(methylthio)-5H-cyclopenta[d]pyrimidin-4-amine] | 21 | 50 | 26 | 14 | 43 | 32 | 31 | 46 | 26 | 4 | 35 |  |  |  |  |  |
| COc1cc(Nc2ncnc3c2CCC3)cc(OC)c1 [Example 24, 6,7-Dihydro-N-(3,5-dimethoxyphenyl)-5H-cyclopenta[d]pyrimidin-4-amine] |  | 5000 |  |  |  |  | 987 | 5000 |  |  |  | > 10000 | > 10000 | > 10000 | > 10000 |  |
| COc1cc(Nc2nc(SC)nc3c2COC3)cc(OC)c1 [Example 7, 5,7-Dihydro-N-(3,5-dimethoxyphenyl)-2-(methylthio)furo[3,4-d]pyrimidin-4-amine] |  | 27 |  |  |  | 54 | 61 | 183 |  |  | > 10000 | 5500 | 3000 | 4710 | 3740 | 118 |
| COc1ccc(OC)c(Nc2nc(SC)nc3c2CCC3)c1 [Example 18, 6,7-Dihydro-N-(2,5-dimethoxyphenyl)-2-(methylthio)-5H-cyclopenta[d]pyrimidin-4-amine] |  | 200 |  |  | 934 | 82 | 134 | 21 |  |  | > 10000 | 286 | > 10000 | 1320 | > 10000 |  |
| COc1cc(Nc2nc([S+](C)[O-])nc3c2CCC3)cc(OC)c1 (centres unmarked) [Example 27, 6,7-Dihydro-N-(3,5-dimethoxyphenyl)-2-(methylsulfinyl)-5H-cyclopenta[d]pyrimidin-4-amine] |  | 600 |  |  |  |  | 164 | 500 |  |  |  | > 10000 | > 10000 | > 10000 | > 10000 |  |
| COc1ccc(OC)c(Nc2ncnc3c2CCC3)c1 [Example 25, 6,7-Dihydro-N-(2,5-dimethoxyphenyl)-5H-cyclopenta[d]pyrimidin-4-amine] |  | 890 |  |  | > 10000 | 244 | 260 | 1000 |  |  | > 10000 | > 10000 | > 10000 | > 10000 | > 10000 | 355 |

— patent US20080113946A1, “N-aryl-5,7-dihydrofuro[3,4-d]pyrimidin-4-amines and analogs as activators of caspases and inducers of apoptosis and the use thereof” (Cyntovia, Inc., priority 2006, published 2008)
